Patent publication US10577332B2, “Tetrazole derivatives” (Hoffmann-La Roche Inc., priority 2015, dated 2020)

Legend:
human EAAT3 = biological target: T1, human EAAT3 (Homo sapiens, UniProt P43005); experiment: FLIPR Membrane Potential (FMP) assay; type: cell-based; conditions: HEK-293 cells stably expressing human EAAT3; antagonist applied 15 min before L-glutamate at EC80; Kb by Cheng-Prusoff from IC50
T1 construct: expressed in transfected cells
T1 sequence (P43005 1-524): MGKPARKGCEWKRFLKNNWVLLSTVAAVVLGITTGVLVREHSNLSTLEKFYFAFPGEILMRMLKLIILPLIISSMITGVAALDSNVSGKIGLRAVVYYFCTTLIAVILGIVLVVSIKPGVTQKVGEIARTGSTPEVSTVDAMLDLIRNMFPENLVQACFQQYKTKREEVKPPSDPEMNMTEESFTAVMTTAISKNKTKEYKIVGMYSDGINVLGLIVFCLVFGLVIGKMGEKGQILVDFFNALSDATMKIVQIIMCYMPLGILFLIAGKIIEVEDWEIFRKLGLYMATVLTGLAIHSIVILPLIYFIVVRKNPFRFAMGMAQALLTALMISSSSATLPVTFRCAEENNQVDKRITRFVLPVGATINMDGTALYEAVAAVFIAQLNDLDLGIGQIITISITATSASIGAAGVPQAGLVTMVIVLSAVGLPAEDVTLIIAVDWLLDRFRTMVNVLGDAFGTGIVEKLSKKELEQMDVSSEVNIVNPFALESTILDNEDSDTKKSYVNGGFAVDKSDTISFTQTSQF
Procedure, shortened: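 HEK-293 cells stably expressing human EAAT3, loaded with membrane-potential dye 1 h at 37 °C in Krebs buffer pH 7.4. Antagonists added 15 min before L-glutamate at EC80; peak fluorescence minus basal read on FLIPR at room temperature. Kb derived from IC50 via Cheng-Prusoff.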

Compound | Kb (human EAAT3) | melting point
Cc1ccc(-c2cc(C(=O)NC(C)(C)C3CC3)cc(-n3nnnc3C(C)(C)C)c2)cc1 [Example 109, 3-(5-tert-Butyltetrazol-1-yl)-N-(2-cyclopropylpropan-2-yl)-5-(4-methylphenyl)-benzamide] | 370 nM | 91.5 °C
Cc1cc(-c2cc(C(=O)NC(C)(C)C3CC3)cc(-n3nnnc3C(C)(C)C)c2)ccc1F [Example 110, 3-(5-tert-Butyltetrazol-1-yl)-N-(2-cyclopropylpropan-2-yl)-5-(4-fluoro-3-methylphenyl)-benzamide] | 490 nM | 88 °C
CC(C)(C)c1nnnn1-c1cc(C(=O)NC(C)(C)C2CC2)cc(-c2ccc(C(F)(F)F)cc2)c1 [Example 111, 3-(5-tert-Butyltetrazol-1-yl)-N-(2-cyclopropylpropan-2-yl)-5-[4-(trifluoromethyl)-phenyl]-benzamide] | 500 nM | 95.5 °C
CC(C)(C)c1nnnn1-c1cc(C(=O)NC(C)(C)C2CC2)cc(-c2ccc(Cl)c(F)c2)c1 [Example 112, 3-(5-tert-Butyltetrazol-1-yl)-5-(4-chloro-3-fluorophenyl)-N-(2-cyclopropylpropan-2-yl)-benzamide] | 530 nM | 106.5 °C
CC(C)(C)c1nnnn1-c1cc(C(=O)NC(C)(C)C2CC2)cc(-c2ccc(F)c(F)c2)c1 [Example 113, 3-(5-tert-Butyltetrazol-1-yl)-N-(2-cyclopropylpropan-2-yl)-5-(3,4-difluorophenyl)-benzamide] | 350 nM | 90 °C
CC(C)(C)c1nnnn1-c1cc(C(=O)NC(C)(C)C2CC2)cc(-c2ccc(C3CC3)cc2)c1 [Example 114, 3-(5-tert-Butyltetrazol-1-yl)-5-(4-cyclopropylphenyl)-N-(2-cyclopropylpropan-2-yl)-benzamide] | 620 nM | 95 °C
Cc1ccc(-c2cc(C(=O)NC(C)(C)C3CC3)cc(-n3nnnc3C(C)(C)C)c2)cc1F [Example 115, 3-(5-tert-Butyltetrazol-1-yl)-N-(2-cyclopropylpropan-2-yl)-5-(3-fluoro-4-methylphenyl)-benzamide] | 520 nM | 92 °C
CC(C)(C)c1nnnn1-c1cc(C(=O)NC(C)(C)C(F)(F)F)cc(-c2ccc(C(F)(F)F)cc2)c1 [Example 116, 3-(5-tert-Butyltetrazol-1-yl)-5-[4-(trifluoromethyl)-phenyl]-N-(1,1,1-trifluoro-2-methylpropan-2-yl)-benzamide] | 550 nM | 108 °C
Cc1ccc(-c2cc(C(=O)NC(C)(C)C(F)(F)F)cc(-n3nnnc3C(C)(C)C)c2)cc1 [Example 117, 3-(5-tert-Butyltetrazol-1-yl)-5-(4-methylphenyl)-N-(1,1,1-trifluoro-2-methylpropan-2-yl)-benzamide] | 280 nM | 223.5 °C
Cc1cc(-c2cc(C(=O)NC(C)(C)C(F)(F)F)cc(-n3nnnc3C(C)(C)C)c2)ccc1F [Example 118, 3-(5-tert-Butyltetrazol-1-yl)-5-(4-fluoro-3-methylphenyl)-N-(1,1,1-trifluoro-2-methylpropan-2-yl)-benzamide] | 540 nM | 203 °C
CC(C)(C)c1nnnn1-c1cc(C(=O)NC(C)(C)C(F)(F)F)cc(-c2ccc(Cl)c(F)c2)c1 [Example 119, 3-(5-tert-Butyltetrazol-1-yl)-5-(4-chloro-3-fluorophenyl)-N-(1,1,1-trifluoro-2-methylpropan-2-yl)-benzamide] | 350 nM | 222 °C
CC(C)(C#N)NC(=O)c1cc(-c2ccc(C(F)(F)F)cc2)cc(-n2nnnc2C(C)(C)C)c1 [Example 120, 3-(5-tert-Butyltetrazol-1-yl)-N-(2-cyanopropan-2-yl)-5-[4-(trifluoromethyl)-phenyl]benzamide] | 300 nM | 276.5 °C
CC(C)(C#N)NC(=O)c1cc(-c2ccc(Cl)c(F)c2)cc(-n2nnnc2C(C)(C)C)c1 [Example 121, 3-(5-tert-Butyltetrazol-1-yl)-5-(4-chloro-3-fluorophenyl)-N-(2-cyanopropan-2-yl)-benzamide] | 210 nM | 261.5 °C
CC(C)(C)c1nnnn1-c1cc(C(=O)NC(C)(C)C(F)(F)F)cc(-c2ccc(F)c(F)c2)c1 [Example 122, 3-(5-tert-Butyltetrazol-1-yl)-5-(3,4-difluorophenyl)-N-(1,1,1-trifluoro-2-methylpropan-2-yl)-benzamide] | 360 nM | 221.5 °C
CC(C)(C#N)NC(=O)c1cc(-c2ccc(F)c(F)c2)cc(-n2nnnc2C(C)(C)C)c1 [Example 123, 3-(5-tert-Butyltetrazol-1-yl)-N-(2-cyanopropan-2-yl)-5-(3,4-difluorophenyl)-benzamide] | 220 nM | 263.5 °C
